Read-outs that look alike come from different tables or passages of the source.
Target: human PDE4D catalytic domain (Homo sapiens (Human), UniProt Q08499)
Assay: PDE4 Assay (TR-FRET, FAM-cAMP cleavage)
Type: biochemical
Settings: read-out: PDE4 IC50 range
Procedure, shortened: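 PDE4D catalytic domain (S380-L740) incubated briefly with unlabelled cAMP plus FAM-cAMP and titrated compound. Reaction stopped with binding buffer holding metal-ion nanoparticles that bind AMP phospho groups and Tb donor, and AMP formation read by TR-FRET. IC50 versus controls, reported as ranges (nM).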

Chain of human PDE4D catalytic domain (Q08499 380-740): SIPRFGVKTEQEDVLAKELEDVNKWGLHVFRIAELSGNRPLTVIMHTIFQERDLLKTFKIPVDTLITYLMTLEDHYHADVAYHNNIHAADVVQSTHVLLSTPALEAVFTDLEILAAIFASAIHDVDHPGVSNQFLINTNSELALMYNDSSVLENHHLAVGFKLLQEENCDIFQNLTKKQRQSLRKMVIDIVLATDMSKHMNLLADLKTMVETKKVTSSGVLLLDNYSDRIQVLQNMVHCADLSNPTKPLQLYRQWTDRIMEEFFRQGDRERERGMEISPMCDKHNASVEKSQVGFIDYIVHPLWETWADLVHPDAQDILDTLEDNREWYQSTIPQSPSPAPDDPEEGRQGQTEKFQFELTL

SMILES	IC50 (Table 16, Examples 277-296) [nM]	IC50 (Table 17, Examples 297-316) [nM]
CCn1nc(C[C@@H](C)COC(=O)c2coc(C)n2)c2c1C(=O)NCC1(CCOCC1)C2 [Example 281, [(2R)-3-(1-ethyl-8-oxo-spiro[6,7-dihydro-4H-pyrazolo[3,4-c]azepine-5,4′-tetrahydropyran]-3-yl)-2-methyl-propyl] 2-methyloxazole-4-carboxylate]	< 100	
CCn1nc(C[C@@H](C)COC(=O)c2cnc(C)o2)c2c1C(=O)NCC1(CCOCC1)C2 [Example 282, [(2R)-3-(1-ethyl-8-oxo-spiro[6,7-dihydro-4H-pyrazolo[3,4-c]azepine-5,4′-tetrahydropyran]-3-yl)-2-methyl-propyl] 2-methyloxazole-5-carboxylate]	< 100	
CCn1nc(C[C@@H](C)COC(=O)c2ccns2)c2c1C(=O)NCC1(CCOCC1)C2 [Example 283, [(2R)-3-(1-ethyl-8-oxo-spiro[6,7-dihydro-4H-pyrazolo[3,4-c]azepine-5,4′-tetrahydropyran]-3-yl)-2-methyl-propyl] isothiazole-5-carboxylate]	< 100	
CCn1nc(C[C@@H](C)COC(=O)c2cnsc2)c2c1C(=O)NCC1(CCOCC1)C2 [Example 284, [(2R)-3-(1-ethyl-8-oxo-spiro[6,7-dihydro-4H-pyrazolo[3,4-c]azepine-5,4′-tetrahydropyran]-3-yl)-2-methyl-propyl] isothiazole-4-carboxylate]	< 100	
CCn1nc(C[C@@H](C)COC(=O)c2cscn2)c2c1C(=O)NCC1(CCOCC1)C2 [Example 285, [(2R)-3-(1-ethyl-8-oxo-spiro[6,7-dihydro-4H-pyrazolo[3,4-c]azepine-5,4′-tetrahydropyran]-3-yl)-2-methyl-propyl] thiazole-4-carboxylate]	< 100	
CCn1nc(C[C@@H](C)COC(=O)c2cncs2)c2c1C(=O)NCC1(CCOCC1)C2 [Example 286, [(2R)-3-(1-ethyl-8-oxo-spiro[6,7-dihydro-4H-pyrazolo[3,4-c]azepine-5,4′-tetrahydropyran]-3-yl)-2-methyl-propyl] thiazole-5-carboxylate]	< 100	
CCn1nc(C[C@@H](C)COC(=O)C2CCOCC2)c2c1C(=O)NCC1(CCOCC1)C2 [Example 287, [(2R)-3-(1-ethyl-8-oxo-spiro[6,7-dihydro-4H-pyrazolo[3,4-c]azepine-5,4′-tetrahydropyran]-3-yl)-2-methyl-propyl] tetrahydropyran-4-carboxylate]	< 100	
CCn1nc(C[C@@H](C)COC(=O)c2cnc(C)nc2)c2c1C(=O)NCC1(CCOCC1)C2 [Example 288, [(2R)-3-(1-ethyl-8-oxo-spiro[6,7-dihydro-4H-pyrazolo[3,4-c]azepine-5,4′-tetrahydropyran]-3-yl)-2-methyl-propyl] 2-methylpyrimidine-5-carboxylate]	< 100	
CCn1nc(C[C@@H](C)COC(=O)c2cc(C)n(C)n2)c2c1C(=O)NCC1(CCOCC1)C2 [Example 289, [(2R)-3-(1-ethyl-8-oxo-spiro[6,7-dihydro-4H-pyrazolo[3,4-c]azepine-5,4′-tetrahydropyran]-3-yl)-2-methyl-propyl] 1,5-dimethylpyrazole-3-carboxylate]	< 100	
CCn1nc(C[C@@H](C)COC(=O)c2csc(C)n2)c2c1C(=O)NCC1(CCOCC1)C2 [Example 290, [(2R)-3-(1-ethyl-8-oxo-spiro[6,7-dihydro-4H-pyrazolo[3,4-c]azepine-5,4′-tetrahydropyran]-3-yl)-2-methyl-propyl] 2-methylthiazole-4-carboxylate]	< 100	
CCn1nc(C[C@@H](C)COC(=O)c2cnc(C)s2)c2c1C(=O)NCC1(CCOCC1)C2 [Example 291, [(2R)-3-(1-ethyl-8-oxo-spiro[6,7-dihydro-4H-pyrazolo[3,4-c]azepine-5,4′-tetrahydropyran]-3-yl)-2-methyl-propyl] 2-methylthiazole-5-carboxylate]	< 100	
CCn1nc(C[C@@H](C)COC(=O)C2CCN(C)CC2)c2c1C(=O)NCC1(CCOCC1)C2 [Example 292, [(2R)-3-(1-ethyl-8-oxo-spiro[6,7-dihydro-4H-pyrazolo[3,4-c]azepine-5,4′-tetrahydropyran]-3-yl)-2-methyl-propyl] 1-methylpiperidine-4-carboxylate]	100 to 500	
CCn1nc(C[C@@H](C)COC(=O)c2cc(C)nc(C)c2)c2c1C(=O)NCC1(CCOCC1)C2 [Example 293, [(2R)-3-(1-ethyl-8-oxo-spiro[6,7-dihydro-4H-pyrazolo[3,4-c]azepine-5,4′-tetrahydropyran]-3-yl)-2-methyl-propyl] 2,6-dimethylpyridine-4-carboxylate]	< 100	
CCn1nc(C[C@@H](C)COC(=O)C2CCN(C(C)=O)CC2)c2c1C(=O)NCC1(CCOCC1)C2 [Example 294, [(2R)-3-(1-ethyl-8-oxo-spiro[6,7-dihydro-4H-pyrazolo[3,4-c]azepine-5,4′-tetrahydropyran]-3-yl)-2-methyl-propyl] 1-acetylpiperidine-4-carboxylate]	< 100	
CCn1nc(C[C@@H](C)COC(=O)C2CCN(C(=O)OC)CC2)c2c1C(=O)NCC1(CCOCC1)C2 [Example 295, [(2R)-3-(1-ethyl-8-oxo-spiro[6,7-dihydro-4H-pyrazolo-[3,4-c]azepine-5,4′-tetrahydro-pyran]-3-yl)-2-methyl-propyl] 1-methoxycarbonylpiperidine-4-carboxylate]	< 100	
CCn1nc(C[C@@H](C)COC(=O)C2CCN(C(=O)N(C)C)CC2)c2c1C(=O)NCC1(CCOCC1)C2 [Example 296, [(2R)-3-(1-ethyl-8-oxo-spiro[6,7-dihydro-4H-pyrazolo[3,4-c]azepine-5,4′-tetrahydropyran]-3-yl)-2-methyl-propyl] 1-(dimethylcarbamoyl)piperidine-4-carboxylate]	< 100	
CCn1nc(CC(C)(C)COC(=O)c2cocn2)c2c1C(=O)NCC1(CCOCC1)C2 [Example 297, [3-(1-ethyl-8-oxo-spiro[6,7-dihydro-4H-pyrazolo[3,4-c]azepine-5,4′-tetrahydro-pyran]-3-yl)-2,2-dimethyl-propyl] oxazole-4-carboxylate]		< 100
CCn1nc(CC(C)(C)COC(=O)c2ccn(C)n2)c2c1C(=O)NCC1(CCOCC1)C2 [Example 298, [3-(1-ethyl-8-oxo-spiro[6,7-dihydro-4H-pyrazolo[3,4-c]azepine-5,4′-tetrahydro-pyran]-3-yl)-2,2-dimethyl-propyl] 1-methylpyrazole-3-carboxylate]		< 100
CCn1nc(CC(C)(C)COC(=O)c2cnn(C)c2)c2c1C(=O)NCC1(CCOCC1)C2 [Example 299, [3-(1-ethyl-8-oxo-spiro[6,7-dihydro-4H-pyrazolo[3,4-c]azepine-5,4′-tetrahydropyran]-3-yl)-2,2-dimethyl-propyl] 1-methylpyrazole-4-carboxylate]		< 100
CCn1nc(CC(C)(C)COC(=O)c2cn(C)cn2)c2c1C(=O)NCC1(CCOCC1)C2 [Example 300, [3-(1-ethyl-8-oxo-spiro[6,7-dihydro-4H-pyrazolo[3,4-c]azepine-5,4′-tetrahydropyran]-3-yl)-2,2-dimethyl-propyl] 1-methylimidazole-4-carboxylate]		< 100
CCn1nc(CC(C)(C)COC(=O)c2coc(C)n2)c2c1C(=O)NCC1(CCOCC1)C2 [Example 301, [3-(1-ethyl-8-oxo-spiro[6,7-dihydro-4H-pyrazolo[3,4-c]azepine-5,4′-tetrahydropyran]-3-yl)-2,2-dimethyl-propyl] 2-methyloxazole-4-carboxylate]		< 100
CCn1nc(CC(C)(C)COC(=O)c2cnc(C)o2)c2c1C(=O)NCC1(CCOCC1)C2 [Example 302, [3-(1-ethyl-8-oxo-spiro[6,7-dihydro-4H-pyrazolo[3,4-c]azepine-5,4′-tetrahydropyran]-3-yl)-2,2-dimethyl-propyl] 2-methyloxazole-5-carboxylate]		< 100
CCn1nc(CC(C)(C)COC(=O)c2ccns2)c2c1C(=O)NCC1(CCOCC1)C2 [Example 303, [3-(1-ethyl-8-oxo-spiro[6,7-dihydro-4H-pyrazolo[3,4-c]azepine-5,4′-tetrahydro-pyran]-3-yl)-2,2-dimethyl-propyl] isothiazole-5-carboxylate]		< 100
CCn1nc(CC(C)(C)COC(=O)c2cnsc2)c2c1C(=O)NCC1(CCOCC1)C2 [Example 304, [3-(1-ethyl-8-oxo-spiro[6,7-dihydro-4H-pyrazolo[3,4-c]azepine-5,4′-tetrahydro-pyran]-3-yl)-2,2-dimethyl-propyl] isothiazole-4-carboxylate]		< 100
CCn1nc(CC(C)(C)COC(=O)c2cscn2)c2c1C(=O)NCC1(CCOCC1)C2 [Example 305, [3-(1-ethyl-8-oxo-spiro[6,7-dihydro-4H-pyrazolo[3,4-c]azepine-5,4′-tetrahydro-pyran]-3-yl)-2,2-dimethyl-propyl] thiazole-4-carboxylate]		< 100
CCn1nc(CC(C)(C)COC(=O)c2cncs2)c2c1C(=O)NCC1(CCOCC1)C2 [Example 306, [3-(1-ethyl-8-oxo-spiro[6,7-dihydro-4H-pyrazolo[3,4-c]azepine-5,4′-tetrahydro-pyran]-3-yl)-2,2-dimethyl-propyl] thiazole-5-carboxylate]		< 100
CCn1nc(CC(C)(C)COC(=O)C2CCOCC2)c2c1C(=O)NCC1(CCOCC1)C2 [Example 307, [3-(1-ethyl-8-oxo-spiro[6,7-dihydro-4H-pyrazolo[3,4-c]azepine-5,4′-tetrahydro-pyran]-3-yl)-2,2-dimethyl-propyl] tetrahydropyran-4-carboxylate]		< 100
CCn1nc(CC(C)(C)COC(=O)c2cnc(C)nc2)c2c1C(=O)NCC1(CCOCC1)C2 [Example 308, [3-(1-ethyl-8-oxo-spiro[6,7-dihydro-4H-pyrazolo[3,4-c]azepine-5,4′-tetrahydropyran]-3-yl)-2,2-dimethyl-propyl] 2-methylpyrimidine-5-carboxylate]		< 100

— patent US10793580B2, “Substituted pyrazoloazepin-8-ones and their use as phosphodiesterase inhibitors” (LEO Pharma A/S, priority 2016, dated 2020)
